What was measured:
Rattus norvegicus [1] = experiment: Effect on plasma glucose level in normal Rattus norvegicus Wistar (rat) at 20 mg/kg, po administered for 15 days by glucose oxidase method (reference value: 85.7 +/- 7.2 mg/dl); format: organism-based; set-up: dose 20 mg/kg, route oral; details: in vivo, 360 h
Rattus norvegicus [2] = experiment: Antidiabetic activity in po dosed Rattus norvegicus Wistar (rat) assessed as decrease in STZ-induced plasma glucose level administered for 15 days by glucose oxidase method; format: functional, organism-based
Rattus norvegicus [3] = experiment: Antidiabetic activity in Rattus norvegicus Wistar (rat) assessed as STZ-induced plasma glucose level at 20 mg/kg, po administered for 15 days by glucose oxidase method (reference value: 377.3 +/- 10.5 mg/dl); format: functional
Rattus norvegicus [4] = experiment: Antidiabetic activity in Rattus norvegicus Wistar (rat) assessed as STZ-induced plasma glucose level at 10 mg/kg, po administered for 15 days by glucose oxidase method (reference value: 377.3 +/- 10.5 mg/dl); format: functional
Rattus norvegicus [5] = experiment: Antidiabetic activity in Rattus norvegicus Wistar (rat) assessed as STZ-induced plasma glucose level at 5 mg/kg, po administered for 15 days by glucose oxidase method (reference value: 377.3 +/- 10.5 mg/dl); format: functional

Row | Activity (Rattus norvegicus [1]) | Activity (Rattus norvegicus [2]) | Compound | Activity (Rattus norvegicus [3]) | Activity (Rattus norvegicus [4]) | Activity (Rattus norvegicus [5])
1 | 95.57 mg/dL | Dose-dependent effect | C=C1CC[C@H]2C(C)=CC[C@H]3C(=C)C(=O)O[C@@H]3[C@@H]12 [EREMANTHIN] | 188.76 mg/dL | 265.27 mg/dL | 308.41 mg/dL
2 | 85.5 mg/dL | Dose-dependent effect | C=C1C(=O)O[C@@H]2/C=C(\C)CC/C=C(\C)CC[C@@H]12 [COSTUNOLIDE] | 167 mg/dL | 240.7 mg/dL | 285.5 mg/dL

From ChEMBL document CHEMBL3045971, “Normalizing effects of Costus speciosus rhizome crude extracts and its fractions on diabetic complications in STZ-induced diabetic rats” (Med Chem Res, 2011)
